In patent US8404680B2, “N-[3-(5-amino-3,3a,7,7a-tetrahydro-1H-2,4-dioxa-6-aza-inden-7-yl)-phenyl]-amides as BACE1 and/or BACE2 inhibitors” (Hoffmann-La Roche Inc., priority 2011, dated 2013):

How the values were obtained:
BACE1 = target: T1, BACE1 (Homo sapiens, UniProt P56817); assay: Cellular Aβ-lowering assay; type: cell-based; details: human HEK293 cells stably expressing human APP wt (APP695); Aβ40 in supernatant by ELISA after 18-20 hrs
T1 construct: Human HEK293 cells which are stably transfected with a vector expressing a cDNA of the human APP wt gene (APP695); endogenous in cells; host or cells: HEK293 (human), stably transfected with human APP695 wt
Description: Cellular Aβ-Lowering Assay:
Human HEK293 cells which are stably transfected with a vector expressing a cDNA of the human APP wt gene (APP695) were used to assess the potency of the compounds in a cellular assay. The cells were seeded in 96-well microtiter plates in cell culture medium (Iscove, plus 10% (v/v) fetal bovine serum, glutamine, penicillin/streptomycin) to about 80% confluence and the compounds were added at a 10× concentration in 1/10 volume of medium without FCS containing 8% DMSO (final concentration of DMSO was kept at 0.8% v/v). After 18-20 hrs incubation at 37° C. and 5% CO2 in a humidified incubator the culture supernatant was harvested for the determination of Aβ40 concentrations. 96well ELISA plates (e.g., Nunc MaxiSorb) were coated with monoclonal antibody which specifically recognize the C-terminal end of Aβ40 (Brockhaus et al., NeuroReport 9, 1481-1486; 1998). After blocking of non-specific binding sites with e.g. 1% BSA and washing, the culture supernatants were added in suitable dilutions together with a horseradish peroxidase-coupled Aβ detection antibody (e.g., antibody 4G8, Senetek, Md. Heights, Mo.) and incubated for 5 to 7 hrs. Subsequently the wells of the microtiter plate were washed extensively with Tris-buffered saline containing 0.05% Tween 20 and the assay was developed with tetramethylbenzidine/H2O2 in citric acid buffer. After stopping the reaction with one volume 1 NH2SO4 the reaction was measured in an ELISA reader at 450 nm wavelength. The concentrations of Aβ in the culture supernatants were calculated from a standard curve obtained with known amounts of pure Aβ peptide.

BACE2 = target: T2, BACE2 (Rattus norvegicus, UniProt Q6IE75); assay: Assay for BACE inhibition by measuring cellular TMEM27 cleavage; type: cell-based; details: INS-TMEM27 (INS1e-derived rat cell line, inducible hTMEM27); shed TMEM27 in medium by ELISA
T2 construct: endogenous cellular BACE2 in the Ins1e rat cell line; endogenous in cells; host or cells: INS-TMEM27 (INS1e-derived rat cell line, TetOn-inducible full-length hTMEM27)
T2 sequence (Q6IE75 63-514): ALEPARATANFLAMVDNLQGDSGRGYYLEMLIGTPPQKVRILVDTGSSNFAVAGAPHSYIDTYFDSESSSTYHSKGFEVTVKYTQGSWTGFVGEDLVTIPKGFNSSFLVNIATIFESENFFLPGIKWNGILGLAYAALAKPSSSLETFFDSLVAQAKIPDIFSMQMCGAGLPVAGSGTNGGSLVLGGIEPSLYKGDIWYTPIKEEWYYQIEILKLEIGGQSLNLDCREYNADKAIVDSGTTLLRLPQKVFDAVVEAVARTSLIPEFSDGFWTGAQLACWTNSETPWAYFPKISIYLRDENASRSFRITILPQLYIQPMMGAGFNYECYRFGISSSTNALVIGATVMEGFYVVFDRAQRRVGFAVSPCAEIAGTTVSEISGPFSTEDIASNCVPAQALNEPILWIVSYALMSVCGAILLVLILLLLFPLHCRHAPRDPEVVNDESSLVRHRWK
From the text: Assay for BACE Inhibition by Measuring Cellular TMEM27 Cleavage:
The assay uses the principle of inhibition of human TMEM27 cleavage by endogenous cellular BACE2 in the Ins1e rat cell line and shedding from the cell surface into the culture medium, followed by detection in an ELISA assay Inhibition of BACE2 prevents the cleavage and shedding in a dose-dependent manner.
The stable cell line “INS-TMEM27” represents an INS1e-derived cell line with inducible expression (using the TetOn system) of full-length hTMEM27 in a doxycycline-dependent manner. The cells are cultured throughout the experiment in RPMI1640+ Glutamax (Invitrogen) Penicillin/Streptomycin, 10% Fetal bovine serum, […], […], 100 micrograms/ml G418 and 100 microgram/ml hygromycin and are grown inadherent culture at 37° C. in a standard CO2 cell culture incubator.
INS-TMEM27 cells are seeded in 96-well plates. After 2 days in culture, BACE2 inhibitor is added in a range of concentrations as required by the assay and after a further two hours, doxycycline is added to a final concentration of 500 ng/ml. The cells are incubated for a further 46 hours and the supernatant harvested for detection of shed TMEM27.
An ELISA assay (using a pair of mouse anti-human-TMEM27 antibodies, raised against the extracellular domain of TMEM27) is used for detection of TMEM27 in the culture medium. An EC50 for BACE2 inhibition is calculated using the ELISA readout for each inhibitor concentration with standard curve-fitting software such as XLFit for the Excel spreadsheet program.

T1 sequence (P56817 46-501): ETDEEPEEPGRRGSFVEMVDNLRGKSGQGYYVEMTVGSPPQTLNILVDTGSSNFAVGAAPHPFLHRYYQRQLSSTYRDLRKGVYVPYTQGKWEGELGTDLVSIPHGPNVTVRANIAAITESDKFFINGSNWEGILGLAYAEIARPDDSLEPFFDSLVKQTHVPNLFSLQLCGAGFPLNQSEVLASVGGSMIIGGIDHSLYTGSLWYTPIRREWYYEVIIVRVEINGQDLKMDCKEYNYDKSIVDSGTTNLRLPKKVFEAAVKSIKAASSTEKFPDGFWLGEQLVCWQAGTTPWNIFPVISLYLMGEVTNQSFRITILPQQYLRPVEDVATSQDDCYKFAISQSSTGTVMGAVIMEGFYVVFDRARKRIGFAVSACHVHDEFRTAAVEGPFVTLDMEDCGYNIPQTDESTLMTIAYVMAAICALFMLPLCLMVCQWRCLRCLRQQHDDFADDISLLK

IC50 (BACE1) [nM]	IC50 (BACE2) [nM]	SMILES
6	556	C[C@]1(c2cc(NC(=O)c3ccc(OCC(F)(F)F)cn3)ccc2F)N=C(N)O[C@@H]2COC[C@@H]21 [Example 6, 5-(2,2,2-Trifluoro-ethoxy)-pyridine-2-carboxylic acid [3-((3aS,7S,7aS)-5-amino-7-methyl-3,3a,7,7a-tetrahydro-4H-2,4-dioxa-6-aza-inden-7-yl)-4-fluoro-phenyl]-amide]
2.5	18	C[C@]1(c2cc(NC(=O)c3ccc(F)cn3)ccc2F)N=C(N)O[C@@H]2COC[C@@H]21 [Example 3, 5-Fluoro-pyridine-2-carboxylic acid [3-((3aS,7S,7aS)-5-amino-7-methyl-3,3a,7,7a-tetrahydro-4H-2,4-dioxa-6-aza-inden-7-yl)-4-fluoro-phenyl]-amide]
